In patent US20250051338A1, “TYK2 DEGRADERS AND USES THEREOF” (Kymera Therapeutics, Inc., priority 2021, published 2025):

Experiments:
Assay type in all cases: cell-based
TYK2 [1] = biological target: T1, TYK2 (Homo sapiens, UniProt P29597); assay: TYK2 degradation MSD assay in human PBMC cells; design: endogenous in cells; host or cells: human PBMC; conditions: 4 to 24 hours incubation, read-out: TYK2 MSD DC50 rating in human PBMC
Summary of the method: (§1)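 TYK2 levels in lysed cells, detected via antibody capture and SULFO-TAG electrochemiluminescence, were compared across a nine-point threefold compound dilution (highest 1 to 10 μM) after 4–24 h culture at 37° C under 5% CO2. Four-parameter nonlinear regression of the dose response yielded DC50.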

TYK2 [2] = biological target: T1, TYK2; assay: TYK2 degradation MSD assay in OCI-LY10 cells; design: endogenous in cells; host or cells: EBV-B cells; conditions: 4 to 24 hours incubation, read-out: TYK2 MSD DC50 rating in OCI-LY10
Summary of the method: as §1

TYK2 [3] = biological target: T1, TYK2; assay: TYK2 degradation MSD assay in EBV-B cells; design: endogenous in cells; host or cells: EBV-B cells; conditions: 4 to 24 hours incubation, read-out: TYK2 MSD DC50 rating in EBV-B
Summary of the method: as §1

T1 sequence (P29597 whole entry): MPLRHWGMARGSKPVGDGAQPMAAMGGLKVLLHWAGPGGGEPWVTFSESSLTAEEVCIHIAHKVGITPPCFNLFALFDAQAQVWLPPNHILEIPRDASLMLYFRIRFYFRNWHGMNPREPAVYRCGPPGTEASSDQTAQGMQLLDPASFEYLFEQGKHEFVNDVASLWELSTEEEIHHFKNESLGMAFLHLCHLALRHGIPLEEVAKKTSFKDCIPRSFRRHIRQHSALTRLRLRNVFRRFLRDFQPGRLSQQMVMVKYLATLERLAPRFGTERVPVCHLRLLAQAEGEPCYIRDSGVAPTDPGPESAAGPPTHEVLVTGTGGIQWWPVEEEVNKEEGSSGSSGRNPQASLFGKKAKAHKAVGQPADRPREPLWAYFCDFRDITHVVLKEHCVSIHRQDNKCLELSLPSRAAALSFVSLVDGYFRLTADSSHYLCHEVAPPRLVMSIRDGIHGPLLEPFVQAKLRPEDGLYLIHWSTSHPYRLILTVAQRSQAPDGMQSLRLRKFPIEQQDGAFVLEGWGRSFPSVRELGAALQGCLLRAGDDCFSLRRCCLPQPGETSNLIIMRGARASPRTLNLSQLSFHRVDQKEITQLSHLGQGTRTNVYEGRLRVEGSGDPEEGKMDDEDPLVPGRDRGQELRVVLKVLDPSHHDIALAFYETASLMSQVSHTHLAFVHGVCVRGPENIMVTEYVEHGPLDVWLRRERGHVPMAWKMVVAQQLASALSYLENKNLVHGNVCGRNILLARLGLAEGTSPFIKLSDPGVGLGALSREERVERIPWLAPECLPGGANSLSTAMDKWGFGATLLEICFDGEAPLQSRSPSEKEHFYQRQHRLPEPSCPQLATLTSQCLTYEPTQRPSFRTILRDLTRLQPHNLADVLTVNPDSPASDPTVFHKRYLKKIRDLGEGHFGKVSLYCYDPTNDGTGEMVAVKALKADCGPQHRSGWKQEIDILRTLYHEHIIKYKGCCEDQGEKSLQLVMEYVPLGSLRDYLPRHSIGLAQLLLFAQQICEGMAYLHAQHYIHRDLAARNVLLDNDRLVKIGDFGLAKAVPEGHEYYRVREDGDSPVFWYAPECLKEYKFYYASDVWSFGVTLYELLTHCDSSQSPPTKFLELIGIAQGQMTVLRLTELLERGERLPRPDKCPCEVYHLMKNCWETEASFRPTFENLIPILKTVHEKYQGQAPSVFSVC

DC50 (TYK2 [1]) [nM] | DC50 (TYK2 [2]) [nM] | DC50 (TYK2 [3]) [nM] | Structure (SMILES)
< 1 | > 100 | > 100 | CNc1cc(Nc2ccccc2C(=O)NCCCCCCCCc2ccc3c(c2)n(C)c(=O)n3C2CCC(=O)NC2=O)nn2c(C(=O)N[C@@H]3C[C@@H]3F)cnc12 (stereo partly drawn) [Example K256]
1 to 10 | 10 to 100 | > 100 | CNc1cc(Nc2ccccc2C(=O)NCCCCCCc2cccc3c2n(C)c(=O)n3C2CCC(=O)NC2=O)nn2c(C(=O)N[C@@H]3C[C@@H]3F)cnc12 (stereo partly drawn) [Example K257]
< 1 | > 100 | > 100 | CNc1cc(Nc2ccccc2C(=O)NCCCCCCCCc2cccc3c2n(C)c(=O)n3C2CCC(=O)NC2=O)nn2c(C(=O)N[C@@H]3C[C@@H]3F)cnc12 (stereo partly drawn) [Example K258]
> 100 | > 100 | > 100 | CNc1cc(Nc2cccn(-c3ccc(C(=O)NCCCCc4cccc5c4n(C)c(=O)n5C4CCC(=O)NC4=O)cn3)c2=O)nn2c(C(=O)N[C@@H]3C[C@@H]3F)cnc12 (stereo partly drawn) [Example K259]
< 1 | > 100 | > 100 | CNc1cc(Nc2cccn(-c3ccc(C(=O)NCCCCCCCc4ccc5c(c4)n(C)c(=O)n5C4CCC(=O)NC4=O)cn3)c2=O)nn2c(C(=O)N[C@@H]3C[C@@H]3F)cnc12 (stereo partly drawn) [Example K260]
< 1 | > 100 | 1 to 10 | CNc1cc(Nc2cccn(-c3ccc(C(=O)NCCCCCCCCCCc4ccc5c(c4)n(C)c(=O)n5C4CCC(=O)NC4=O)cn3)c2=O)nn2c(C(=O)N[C@@H]3C[C@@H]3F)cnc12 (stereo partly drawn) [Example K261]
1 to 10 | > 100 | > 100 | CNc1cc(Nc2cccn(-c3ccc(C(=O)NCCOCCOCCc4ccc5c(c4)n(C)c(=O)n5C4CCC(=O)NC4=O)cn3)c2=O)nn2c(C(=O)N[C@@H]3C[C@@H]3F)cnc12 (stereo partly drawn) [Example K262]
1 to 10 | > 100 | > 100 | CNc1cc(Nc2cccn(-c3ccc(C(=O)NCCOCCOCCOCCOCCc4ccc5c(c4)n(C)c(=O)n5C4CCC(=O)NC4=O)cn3)c2=O)nn2c(C(=O)N[C@@H]3C[C@@H]3F)cnc12 (stereo partly drawn) [Example K263]
> 100 | > 100 | > 100 | CNc1cc(Nc2cccn(-c3ccc(C(=O)NCCCCc4ccc5c(c4)n(C)c(=O)n5C4CCC(=O)NC4=O)cn3)c2=O)nn2c(C(=O)N[C@@H]3C[C@@H]3F)cnc12 (stereo partly drawn) [Example K264]
< 1 | > 100 | > 100 | CNc1cc(Nc2cccn(-c3ccc(C(=O)NCCCCCCCc4cccc5c4n(C)c(=O)n5C4CCC(=O)NC4=O)cn3)c2=O)nn2c(C(=O)N[C@@H]3C[C@@H]3F)cnc12 (stereo partly drawn) [Example K265]
< 1 | > 100 | > 100 | CNc1cc(Nc2cccn(-c3ccc(C(=O)NCCCCCCCCCc4cccc5c4n(C)c(=O)n5C4CCC(=O)NC4=O)cn3)c2=O)nn2c(C(=O)N[C@@H]3C[C@@H]3F)cnc12 (stereo partly drawn) [Example K266]
> 100 | > 100 | > 100 | CNc1cc(Nc2cccn(C3CCN(C(=O)COCCOCCc4ccc5c(c4)n(C)c(=O)n5C4CCC(=O)NC4=O)CC3)c2=O)nn2c(C(=O)N[C@@H]3C[C@@H]3F)cnc12 (stereo partly drawn) [Example K275]
10 to 100 | > 100 | > 100 | CNc1cc(Nc2cccn(C3CCN(C(=O)COCCOCCOCCOCCc4ccc5c(c4)n(C)c(=O)n5C4CCC(=O)NC4=O)CC3)c2=O)nn2c(C(=O)N[C@@H]3C[C@@H]3F)cnc12 (stereo partly drawn) [Example K276]
1 to 10 | > 100 | > 100 | CNc1cc(Nc2cccn(C3CCN(C(=O)NCCCCc4ccc5c(c4)n(C)c(=O)n5C4CCC(=O)NC4=O)CC3)c2=O)nn2c(C(=O)N[C@@H]3C[C@@H]3F)cnc12 (stereo partly drawn) [Example K277]
1 to 10 | > 100 | > 100 | CNc1cc(Nc2cccn(C3CCN(C(=O)NCCCCc4cccc5c4n(C)c(=O)n5C4CCC(=O)NC4=O)CC3)c2=O)nn2c(C(=O)N[C@@H]3C[C@@H]3F)cnc12 (stereo partly drawn) [Example K278]
< 1 | > 100 | > 100 | CNc1cc(Nc2cccn(-c3ccc(C(=O)N(C)C4CCN(Cc5cccc6c5n(C)c(=O)n6C5CCC(=O)NC5=O)CC4)cn3)c2=O)nn2c(C(=O)N[C@@H]3C[C@@H]3F)cnc12 (stereo partly drawn) [Example K279]
< 1 | > 100 | < 1 | CNc1cc(Nc2cccn(-c3ccc(C(=O)N(C)CC4CCN(c5ccc6c(c5)n(C)c(=O)n6C5CCC(=O)NC5=O)CC4)cn3)c2=O)nn2c(C(=O)N[C@@H]3C[C@@H]3F)cnc12 (stereo partly drawn) [Example K280]
< 1 | > 100 | < 1 | CNc1cc(Nc2cccn(-c3ccc(C(=O)N(C)CC4CCN(Cc5cccc6c5n(C)c(=O)n6C5CCC(=O)NC5=O)CC4)cn3)c2=O)nn2c(C(=O)N[C@@H]3C[C@@H]3F)cnc12 (stereo partly drawn) [Example K281]
